Source: patent US8759481B2, “Peptide vaccines for cancers expressing tumor-associated antigens” (Oncotherapy Science, Inc., priority 2007, dated 2014)
Entries after “also recorded” stand apart in the source; their conditions may differ. Ends that are not written are not given here.

What was measured:
Type in all cases: cell-based, human
[1] = test system: peptide-pulsed A24-LCL cells; test: CTL line establishment, IFN-gamma ELISA; conditions: HLA-A24 peptides; vs target without peptide pulse
In short: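 Peptide-pulsed A24-LCL or T2 cells (1×10^4/well) served as stimulators for responder cells from 48-well cultures or limiting-dilution CTL clones. Positive wells scored by IFN-gamma ELISPOT; CTL line establishment from positive wells confirmed by IFN-gamma ELISA; lines expanded with anti-CD3 (40 ng/ml), IL-2 and MMC-inactivated B-LCL feeders.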

[2] = test system: COS7 transfected with full length ECT2 gene and HLA-A*2402; test: Specific CTL activity against transfected target cells; conditions: CTL clone or line raised by the peptide, vs control transfectants
Procedure: (§1) Briefly, peptide-pulsed A24-LCL or T2 cell (1×10^4/well) was prepared as stimulator cells. Cultured Cells in 48 wells or CTL clones after limiting dilution were used as responder cells. IFN-gamma ELISPOT assay and ELISA assay were performed under manufacture procedure.
(§2) The cDNA encoding an open reading frame of target genes or HLA-A02 or HLA-A24 was amplified by PCR. The PCR-amplified product was cloned into pcDNA3.1 myc-His vector (Invitrogen). The plasmids were transfected into the target cells, HLA-A02 and HLA-A24-null normal human cell line COS7 or 293T using lipofectamine (Invitrogen) according to the manufacturer's recommended procedures. Alternatively, the plasmid contained the target genes were transfected into A24-LCL by electroporation using GenePulserII (Biorad). Briefly, 2.5×10^6 A24-LCL cells were pulsed with 10 mcg prasmid at 140V and 1000 micro F. After 2 days from transfection, the transfected cells were treated with Cell dissociation solution and used as the target cells for CTL activity assay.
The established CTL line raised against these peptides were examined for their ability to recognize the target cells expressing ECT2 and HLA-A*2402. […] COS7 transfected with full length ECT2 but not HLA-A*2402 and COS7 transfected with HLA-A*2402 but not full length ECT2 (replaced other gene e.g. URLC10 or INHBB) were prepared as controls.

[3] = test system: peptide-pulsed A24-LCL cells; test: IFN-gamma ELISPOT assay (positive wells); conditions: HLA-A24 peptides; as compared to the control
In short: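 PBMC-derived DCs from HLA-A*2402 and/or A*0201 donors, pulsed with 20 micro g/ml peptide plus 3 micro g/ml beta 2-microglobulin, stimulated autologous CD8+ T cells three times (days 0, 7, 14). On day 21, responders were tested against peptide-pulsed A24-LCL or T2 cells by IFN-gamma ELISPOT. Values are reported as positive wells/wells tested; CTL lines confirmed by ELISA.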

[4] = test system: COS7 transfected with full length CDH3 gene and HLA-A*2402; test: Specific CTL activity against transfected target cells; conditions: CTL clones raised by the peptide, vs single transfectants
Procedure: as §1, §2
The established CTL line raised against these peptides were examined for their ability to recognize the target cells expressing CDH3 and HLA-A*2402. […] COS7 transfected with full length CDH3 but not HLA-A*2402 and COS7 transfected with HLA-A*2402 but not full length CDH3 were prepared as controls.

[5] = test system: peptide-pulsed A24-LCL cells; test: CTL clones by limiting dilution, specific CTL activity; conditions: HLA-A24 peptides; vs target without peptide pulse
Procedure: (§3) The dilutions were made to have 0.3, 1, and 3 CTLs/well in 96 round-bottomed micro titer plate (Nalge Nunc International). CTLs were cultured with 7×10^4 cells/well of 2 kinds of human B-lymphoblastoid cell lines, 30 ng/ml of anti-CD3 antibody, and 125 U/ml of IL-2 in total of 150 micro 1/well of AIM-V containing 5% AS. 50 micro 1/well of IL-2 was added to the medium 10 days later so that IL-2 became 125 U/ml in the final concentration. CTL activity of CTLs was tested on the 14th day, and CTL clones were expanded using the same method above.
as §1

[6] = test system: target cells pulsed with the peptide; test: 51Cr release cytotoxicity assay
Procedure: (§4) Cytotoxic activity was evaluated by a four-hour ^51Cr release assay. The target cells were pulsed with a 20 micro g/mL concentration of peptide overnight. The target cells were labeled with 100 micro Ci of Na2^51CrO4 at 37 degrees C. for one hour, and then washed three times with RPMI1640. The target cells (1×10^4/100 micro L) and 100 micro L of effector cells at various numbers with a total volume of 200 micro L were placed into a round-bottomed 96-well microtiter plate (Corning), and cultured at 37 degrees C. in a CO2 incubator for four hours. After culturing, 100 micro L of the supernatant was collected from each well, and measured the radioactivity using a gamma counter. Spontaneous release was the radioactivity from the target cells with medium in the absence of effector cells, and maximum release was the radioactivity from the target cells with 1 M HCl.
(§5) The Percentage of specific cytotoxicity was determined by calculating as following formula: % Specific lysis=[(experimental release−spontaneous release)/(maximum release−spontaneous release)]×100. Results Enhanced CDH3, EPHA4, ECT2, HIG2, INHBB, KIF20A, KNTC2, TTK and URLC10 Expression in Cancers

[7] = test system: Caki-1 cancer cell line; test: 51Cr release cytotoxicity assay; conditions: Caki-1 expressing INHBB but not HLA-A02
Procedure: as §4, §5
Furthermore, Cytotoxic activity was examined by cytotoxicity assay according to the protocols set forth in the “Materials and Methods” section above.

[8] = test system: MIAPaca2 cancer cell line; test: 51Cr release cytotoxicity assay; conditions: INHBB-positive; compared to CAki-2; listed as INHBB-A24-9-180
Procedure: as §4, §5
Furthermore, Cytotoxic activity was performed by cytotoxicity assay according to the protocols set forth in the “Materials and Methods” section above. […]

[9] = test system: 293T transfected with full length INHBB gene and HLA-A*2402; test: Specific CTL activity against transfected target cells; conditions: CTL line or clone raised by the peptide, vs control transfectants
Procedure: as §1, §2
The established CTL line raised against these peptides were examined for their ability to recognize the target cells expressing INHBB and HLA-A*2402.

[10] = test system: peptide-pulsed T2 cells; test: CTL clones by limiting dilution, specific CTL activity; conditions: HLA-A02 peptides; vs target without peptide pulse
Procedure: as §3, §1

[11] = test system: peptide-pulsed T2 cells; test: IFN-gamma ELISPOT assay (positive wells); conditions: HLA-A02 peptides; as compared to the control
In short: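 CD8+ T cells from HLA-A*2402 and/or HLA-A*0201 donors were stimulated 1:20 with autologous monocyte-derived DCs pulsed with 20 µg/ml peptide plus β2-microglobulin, in IL-7, with IL-2 added, restimulated on days 7 and 14. On day 21, IFN-γ ELISPOT against peptide-pulsed T2 or A24-LCL cells (1×10^4/well) scored wells as positive, with CTL lines confirmed by ELISA.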

[12] = test system: peptide-pulsed T2 cells; test: CTL line establishment, IFN-gamma ELISA; conditions: HLA-A02 peptides; vs target without peptide pulse
In short: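 CTLs expanded with MMC-inactivated B-lymphoblastoid lines, 40 ng/ml anti-CD3 and IL-2 (120 IU/ml day 1, then 30 IU/ml on days 5, 8, 11). Peptide-pulsed T2 or A24-LCL stimulators (1×10^4/well) incubated with cultured wells or limiting-dilution clones as responders; IFN-gamma detected by ELISPOT (positive wells) and ELISA (established CTL lines).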

[13] = test system: COS7 transfected with full length TTK gene and HLA-A*0201; test: Specific CTL activity against transfected target cells; conditions: vs control transfectants
Procedure: as §1, §2
The established CTL clone raised against these peptides were examined for their ability to recognize the target cells endogenously expressing TTK and HLA-A*0201. […] COS7 transfected with full length TTK but HLA-A*0201, COS7 transfected HLA-A*0201 but not full length of TTK (or replaced full length HIG2 gene) and COS7 transfected with HLA-A*0201 and pulsed with different target epitope peptide, were prepared as controls.

Row | Substance | Establishment of CTL line, specific CTL activity against the peptide-pulsed target determined by ELISA [1] | IFN-gamma production by IFN-gamma ELISPOT assay [3] | CTL activities of CTL clones against the peptide-pulsed target [5] | further results
1 | DFQDsVFNDL (DFQDSVFNDL; not fully specified; printed as DFQDsVFNDL) [SEQ ID NO: 101] | CTL lines were established | potent IFN-gamma production | – | Specific CTL activity against COS7 transfected with both ECT2 and HLA-A24 ([2]; listed as ECT2-A24-10-101): highest specific CTL activity; also recorded: high specific CTL activity
2 | DYLNeWGSRF (DYLNEWGSRF; not fully specified; printed as DYLNeWGSRF) [SEQ ID NO: 30] | CTL lines were established | potent IFN-gamma production | potent and specific CTL activities | Specific CTL activity against COS7 transfected with both CDH3 and HLA-A24 ([4]; listed as CDH3-A24-10-807): highest specific CTL activity; also recorded: high specific CTL activity
3 | FILPvLGAVL (FILPVLGAVL; not fully specified; printed as FILPvLGAVL) [SEQ ID NO: 344] | CTL lines were established | potent IFN-gamma production | potent and specific CTL activities | Specific CTL activity against COS7 transfected with both CDH3 and HLA-A24 ([4]; listed as CDH3-A24-10-655): highest specific CTL activity; also recorded: high specific CTL activity
4 | GLNPLTSYV [SEQ ID NO: 376, GLNPLTSYV] | – | – | – | Cytotoxic activity of CTL line against target cells pulsed with the peptide (Cr-release assay) [6]: very potent specific cytotoxic activity
5 | KLNTEIRDV [SEQ ID NO: 379, KLNTEIRDV] | – | – | – | Cytotoxic activity of CTL line against target cells pulsed with the peptide (Cr-release assay) [6]: very potent specific cytotoxic activity
6 | LYLKLLPYV [SEQ ID NO: 395] | – | – | – | Cytotoxic activity against Caki-1 (Cr-release assay) [7]: did not show significant specific cytotoxic activity; Cytotoxic activity against MIAPaca2 (Cr-release assay) [8]: remarkably high cytotoxic effect; also recorded: high specific cytotoxic activity
7 | SEQ ID NO: 133: HLA-A*2402 binding 10-mer peptide derived from INHBB (LYLKLLPYVL) | CTL lines were established | potent IFN-gamma production | – | Specific CTL activity against 293T transfected with both INHBB and HLA-A24 ([9]; listed as INHBB-A24-10-180): highest specific CTL activity; also recorded: high specific CTL activity
8 | SEQ ID NO: 135: HLA-A*2402 binding 10-mer peptide derived from INHBB (RQQFFIDFRL) | CTL lines were established | potent IFN-gamma production | potent and specific CTL activities | Specific CTL activity against 293T transfected with both INHBB and HLA-A24 ([9]; listed as INHBB-A24-10-305): highest specific CTL activity; also recorded: high specific CTL activity
9 | SEQ ID NO: 137: HLA-A*2402 binding 10-mer peptide derived from INHBB (RALGAACLLL) | CTL lines were established | potent IFN-gamma production | – | Specific CTL activity against 293T transfected with both INHBB and HLA-A24 ([9]; listed as INHBB-A24-10-7): highest specific CTL activity
10 | SEQ ID NO: 254: HLA-A*0201 binding 10-mer peptide derived from TTK (YMSCFRTPVV) | – | – | – | CTL activities of CTL clones against the peptide-pulsed target [10]: potent and specific CTL activities; IFN-gamma production by IFN-gamma ELISPOT assay [11]: potent IFN-gamma production; Establishment of CTL line, specific CTL activity against the peptide-pulsed target determined by ELISA [12]: CTL line and three clones were established; Specific CTL activity against COS7 transfected with both TTK and HLA-A02 ([13]; listed as TTK-A02-10-462): specific CTL activity; Specific CTL activity against COS7 transfected with both TTK and HLA-A02 ([13]; listed as TTK-A2-10-462): highest specific CTL activity
11 | SYVEeEMPQI (SYVEEEMPQI; not fully specified; printed as SYVEeEMPQI) [SEQ ID NO: 100] | CTL lines were established | potent IFN-gamma production | potent and specific CTL activities | Specific CTL activity against COS7 transfected with both ECT2 and HLA-A24 ([2]; listed as ECT2-A24-10-40): highest specific CTL activity; also recorded: high specific CTL activity
